Drawing on patent publication US4657913A, “Trifluoro- quinoline -3-carboxylic acids and their use as anti-bacterial agents” (Warner-Lambert Company, priority 1985, dated 1987), this text covers MIC for five compounds.

Molecules are shown by their SMILES. Values after ≈ are worked out from the molar mass of the structure shown.

Common to all, as to assay: microtitration dilution method, in vitro antibacterial activity (MIC)
Common to all, as to format: cell-based

The subject of test [1] is Enterobacter cloacae MA 2646. As to conditions: MA2646, read-out: Minimal Inhibitory Concentration MIC. An excerpt: (§1) The compounds of the invention display antibacterial activity when tested by the microtitration dilution method as described in Heifetz, et al, Antimicr. Agents & Chemoth., 6, 124 (1974), which is incorporated herein by reference.
(§2) By use of the above referenced method, the following minimum inhibitory concentration values (MICs in μg/ml) were obtained for representative compounds of the invention.

The next test relates to Escherichia coli Vogel. As to conditions: read-out: Minimal Inhibitory Concentration MIC.
Description: as §1, §2

Test [2] has as its system Klebsiella pneumoniae MGH-2. As to conditions: MGH2, read-out: Minimal Inhibitory Concentration MIC.
Description: as §1, §2

The next test deals with Proteus rettgeri M 1771. As to conditions: Providencia rettgeri, M1771, read-out: Minimal Inhibitory Concentration MIC.
Description: as §1, §2

For test [3], the system named is Pseudomonas aeruginosa UI-18. As to conditions: UI18, read-out: Minimal Inhibitory Concentration MIC.
Description: as §1, §2

Test [4] concerns Staphlococcus aureus H 228. As to conditions: read-out: Minimal Inhibitory Concentration MIC.
Description: as §1, §2

Test [5] deals with Staphylococcus aureus UC-76. As to conditions: UC76, read-out: Minimal Inhibitory Concentration MIC.
Description: as §1, §2

Test [6] has as its system Streptococcus faecalis MGH-2. As to conditions: Enterococcus faecalis, MGH2, read-out: Minimal Inhibitory Concentration MIC.
Description: as §1, §2

Test [7] relates to Streptococcus pneumoniae SV-1. As to conditions: SV1, read-out: Minimal Inhibitory Concentration MIC.
Description: as §1, §2

For test [8], the system named is Streptococcus pyogenes C-203. As to conditions: C203, read-out: Minimal Inhibitory Concentration MIC.
Description: as §1, §2

On to `CCn1cc(C(=O)O)c(=O)c2c(F)c(F)c(N3CCC(CNC)C3)c(F)c21` (centres unmarked) [Ex. 1C, 1-Ethyl-5,6,8-trifluoro-1,4-dihydro-7-[3-[(methylamino)methyl]-1-pyrrolidinyl]-4-oxo-3-quinolinecarboxylic acid], for which the MIC in test [1] came out at 1.6 µg/mL (≈ 4.17 µM); with Escherichia coli Vogel it was 0.4 µg/mL (≈ 1.04 µM); in test [2], 0.8 µg/mL (≈ 2.09 µM); in the test on Proteus rettgeri M 1771, 6.3 µg/mL (≈ 16.4 µM); in test [3] it was 3.1 µg/mL (≈ 8.09 µM); in test [4], 0.8 µg/mL (≈ 2.09 µM). Moreover, the MIC in test [5] was 0.05 µg/mL (≈ 0.13 µM); in [6] it was 0.8 µg/mL (≈ 2.09 µM); in test [7] it was 0.4 µg/mL (≈ 1.04 µM); in test [8], 0.2 µg/mL (≈ 0.522 µM).

Take `CCNCC1CCN(c2c(F)c(F)c3c(=O)c(C(=O)O)cn(CC)c3c2F)C1` (centres unmarked) [Ex. 1D, 1-Ethyl-7-[3-[(ethylamino)methyl]-1-pyrrolidinyl]-5,6,8-trifluoro-1,4-dihydro-4-oxo-3-quinolinecarboxylic acid]: the MIC was determined as 0.4 µg/mL (≈ 1.01 µM) in test [1]; 0.4 µg/mL (≈ 1.01 µM) in the test on Escherichia coli Vogel; 0.8 µg/mL (≈ 2.01 µM) in test [2]; 0.8 µg/mL (≈ 2.01 µM) with Proteus rettgeri M 1771; 6.3 µg/mL (≈ 15.9 µM) in test [3]; 0.4 µg/mL (≈ 1.01 µM) in [4]. The MIC is 0.013 µg/mL (≈ 0.0327 µM) in test [5], 0.2 µg/mL (≈ 0.503 µM) in [6], 0.2 µg/mL (≈ 0.503 µM) in [7] and 0.2 µg/mL (≈ 0.503 µM) in test [8].

As to `CCn1cc(C(=O)O)c(=O)c2c(F)c(F)c(N3CCC(CN)C3)c(F)c21` (centres unmarked) [Ex. 1A, 7-[3-(Aminomethyl)-1-pyrrolidinyl]-1-ethyl-5,6,8-trifluoro-1,4-dihydro-4-oxo-3-quinolinecarboxylic acid], the MIC was found to be 0.8 µg/mL (≈ 2.17 µM) in test [1]; 0.8 µg/mL (≈ 2.17 µM) in the test with Escherichia coli Vogel; 0.8 µg/mL (≈ 2.17 µM) in test [2]; 3.1 µg/mL (≈ 8.39 µM) with Proteus rettgeri M 1771; 3.1 µg/mL (≈ 8.39 µM) in [3]; 1.6 µg/mL (≈ 4.33 µM) in test [4]. For the same compound, the MIC was 0.8 µg/mL (≈ 2.17 µM) in [5], 0.8 µg/mL (≈ 2.17 µM) in [6], at most 0.1 µg/mL in test [7] and at most 0.1 µg/mL in test [8].

For the compound `CCNCC1CCN(c2c(F)c(F)c3c(=O)c(C(=O)O)cn(C4CC4)c3c2F)C1` (centres unmarked) [Ex. 2A, 1-Cyclopropyl-7-[3-[(ethylamino)methyl]-1-pyrrolidinyl]-5,6,8-trifluoro-1,4-dihydro-4-oxo-3-quinolinecarboxylic acid], the MIC in test [1] was determined as 0.4 µg/mL (≈ 0.977 µM); in the test on Escherichia coli Vogel, 0.2 µg/mL (≈ 0.489 µM); in test [2] it was 0.4 µg/mL (≈ 0.977 µM); with Proteus rettgeri M 1771, 1.6 µg/mL (≈ 3.91 µM); in [3], 3.1 µg/mL (≈ 7.57 µM); in [4], 0.2 µg/mL (≈ 0.489 µM). Besides, the MIC in test [5] came out at 0.025 µg/mL (≈ 0.0611 µM); in test [6], 0.2 µg/mL (≈ 0.489 µM); in [7], 0.2 µg/mL (≈ 0.489 µM); in test [8], 0.1 µg/mL (≈ 0.244 µM).

Consider `CCn1cc(C(=O)O)c(=O)c2c(F)c(F)c(N3CCC4(CCN(C)C4)C3)c(F)c21` (centres unmarked) [Ex. 1B, 1-Ethyl-5,6,8-trifluoro-1,4-dihydro-7-(7-methyl-2,7-diazaspiro[4.4]nonan-2-yl)-4-oxo-3-quinolinecarboxylic acid], for which the MIC in test [1] was found to be 0.8 µg/mL (≈ 1.95 µM); with Escherichia coli Vogel, 0.8 µg/mL (≈ 1.95 µM); in test [2], 1.6 µg/mL (≈ 3.91 µM); with Proteus rettgeri M 1771, 6.3 µg/mL (≈ 15.4 µM); in test [3], 6.3 µg/mL (≈ 15.4 µM); in test [4] it was 0.8 µg/mL (≈ 1.95 µM). In addition, the MIC is 0.2 µg/mL (≈ 0.489 µM) in test [5], 1.6 µg/mL (≈ 3.91 µM) in test [6], 0.8 µg/mL (≈ 1.95 µM) in [7] and 1.6 µg/mL (≈ 3.91 µM) in test [8].
